From US11708348B2, “Protease inhibitors for treatment of coronavirus infections” (The Scripps Research Institute, priority 2021, dated 2023)
Where two headings read alike, the source gives them in different places.

System: SARS-CoV-2 strain USA-WA1/2020
Assay: microbe, parasite or virus in culture
Format: cell-based
Settings: Severe acute respiratory syndrome coronavirus 2, HeLa-ACE2, 24 h, HeLa-ACE2 cells, SARS-CoV-2 infection, 24 h, read-out: EC50, uM (Hela)

SMILES	EC50 (class symbols) [µM]	EC50 [µM]	other results
O=C(NC1CS(=O)(=O)C1)C(=O)N[C@@H](CC1CC1)C(=O)N[C@@H](C[C@@H]1CCNC1=O)C(=O)COC(F)(F)F [Compound 234, N1-((S)-3-cyclopropyl-1-oxo-1-(((S)-3-oxo-1-((S)-2-oxopyrrolidin-3-yl)-4-(trifluoromethoxy)butan-2-yl)amino)propan-2-yl)-N2-(l,1-dioxidothietan-3-yl)oxalamide]	–	–	EC50 (bound printed in cell): > 1 µM
CC(C)(C)[C@@H](O)C(=O)N1C[C@H]2[C@@H]([C@H]1C(=O)N[C@@H](C[C@@H]1CCNC1=O)C(=O)COC(F)(F)F)C2(C)C [Compound 343, (1R,2S,5S)-3-((R)-2-hydroxy-3,3-dimethylbutanoyl)-6,6-dimethyl-N-((S)-3-oxo-1-((S)-2-oxopyrrolidin-3-yl)-4-(trifluoromethoxy)butan-2-yl)-3-azabicyclo[3.1.0]-hexane-2-carboxamide]	0.05 to 0.2	–	–
CC(C)(C)NC(=O)C(=O)NC(CC1CCOCC1)C(=O)N[C@@H](C[C@@H]1CCNC1=O)C(=O)COC(F)(F)F (stereo partly drawn) [Compound 181, N1-(tert-butyl)-N2-(l-oxo-1-(((S)-3-oxo-l-((S)-2-oxopyrrolidin-3-yl)-4-(trifluoromethoxy)butan-2-yl)amino)-3-(tetrahydro-2H-pyran-4-yl)propan-2-yl)oxalamide]	0.2 to 0.5	–	–
COc1cccc(NC(=O)C(=O)N2CC3(CC3)C[C@H]2C(=O)N[C@@H](C[C@@H]2CCNC2=O)C(=O)COC(F)(F)F)c1F [Compound 599, (S)-5-(2-((2-fluoro-3-methoxyphenyl)amino)-2-oxoacetyl)-N-((S)-3-oxo-1-((S)-2-oxopyrrolidin-3-yl)-4-(trifluoromethoxy)butan-2-yl)-5-azaspiro[2.4]heptane-6-carboxamide]	–	< 0.05	–
CC(C)C[C@H](NC(=O)C1COCCO1)C(=O)N[C@@H](C[C@@H]1CCNC1=O)C(=O)COC(F)(F)F (stereo partly drawn) [Compound 247, N-((S)-4-methyl-1-oxo-1-(((S)-3-oxo-1-((S)-2-oxopyrrolidin-3-yl)-4-(trifluoromethoxy)butan-2-yl)amino)pentan-2-yl)-1,4-dioxane-2-carboxamide]	0.05 to 0.2	–	–
O=C1NCC[C@H]1C[C@H](NC(=O)[C@@H]1CC2(CC2)CN1C(=O)c1ccc2c(c1)OC(F)(F)O2)C(=O)COC(F)(F)F [Compound 687, (S)-5-(2,2-difluorobenzo[d][1,3]dioxole-5-carbonyl)-N-((S)-3-oxo-1-((S)-2-oxopyrrolidin-3-yl)-4-(trifluoromethoxy)butan-2-yl)-5-azaspiro[2.4]heptane-6-carboxamide]	–	< 0.05	–
C[C@](O)(C(=O)N1CC2(CC2)C[C@H]1C(=O)N[C@@H](C[C@@H]1CCNC1=O)C(=O)COC(F)(F)F)c1ccccc1 [Compound 365, (S)-5-((R)-2-hydroxy-2-phenylpropanoyl)-N-((S)-3-oxo-1-((S)-2-oxopyrrolidin-3-yl)-4-(trifluoromethoxy)butan-2-yl)-5-azaspiro[2.4]-heptane-6-carboxamide]	< 0.05	–	–
O=C1NCC[C@H]1C[C@H](NC(=O)[C@@H]1[C@H]2CCC[C@H]2CN1C(=O)c1csc(C(F)(F)F)n1)C(=O)COC(F)(F)F [Compound 476, (1S,3aR,6aS)-N-((S)-3-oxo-1-((S)-2-oxopyrrolidin-3-yl)-4-(trifluoromethoxy)butan-2-yl)-2-(2-(trifluoromethyl)-thiazole-4-carbonyl)-octahydrocyclo-penta[c]pyrrole-1-carboxamide]	–	< 0.05	–
CC(C)[C@H](NC(=O)C(=O)Nc1ccccc1F)C(=O)N[C@@H](C[C@@H]1CCNC1=O)C(=O)COc1c(F)c(F)cc(F)c1F [Compound 90, N1-(2-fluorophenyl)-N2-((S)-3-methyl-1-oxo-1-(((S)-3-oxo-1-((S)-2-oxopyrrolidin-3-yl)-4-(2,3,5,6-tetrafluorophenoxy)butan-2-yl)amino)butan-2-yl)oxalamide]	0.05 to 0.2	–	–
